# Source: ChEMBL document CHEMBL4402540, “Structure-Activity Relationship Studies of Small Molecule Modulators of the Staphylococcal Accessory Gene Regulator” (J Med Chem, 2020)
# Where a SMILES comes first, the peptide text is derived from it. Bridges are numbered along the chain shown (N, C = ends). [ ]: non-standard residue; d: D form. The star is where a group is joined. 6FAM = O=C1OC2(c3ccc(O)cc3Oc3cc(O)ccc32)c2cc(C(=O)*)ccc21; Biotin = O=C1N[C@H]2[C@H](CS[C@H]2CCCCC(=O)*)N1; NMeF = CN[C@@H](Cc1ccccc1)C(=O)O; NMeL = CN[C@@H](CC(C)C)C(=O)O; NMeS = CN[C@@H](CO)C(=O)O; Pent4ynoyl = C#CCCC(=O)*; Dap = NC[C@H](N)C(=O)O; AEEA = NCCOCCOCC(=O)O; Aoc = NCCCCCCCC(=O)O; Ava = NCCCCC(=O)O; Mpa = O=C(O)CCS
# Experiments:
# [1] = Inhibition of AgrC-4 in Staphylococcus aureus AH1872 incubated for 24 hrs by fluorescence assay
# [2] = Inhibition of AgrC-2 in Staphylococcus aureus AH430 incubated for 24 hrs by fluorescence assay
# [3] = Inhibition of AgrC-3 in Staphylococcus aureus AH1747 incubated for 24 hrs by fluorescence assay
# [4] = Inhibition of AgrC-1 in Staphylococcus aureus AH1677 incubated for 24 hrs by fluorescence assay
# [5] = Inhibition of AgrC-4 in Staphylococcus aureus
# [6] = Inhibition of AgrC-2 in Staphylococcus aureus
# [7] = Inhibition of AgrC-1 in Staphylococcus aureus
# [8] = Inhibition of AgrC-2 in Staphylococcus aureus RN9372 incubated for 60 to 90 mins in presence of AIP agonist by beta-lactamase reporter gene assay
# [9] = Inhibition of AgrC-1 in Staphylococcus aureus RN9222 incubated for 1 hr in presence of AIP agonist by beta-lactamase reporter gene assay
# [10] = Inhibition of AgrC-2 in Staphylococcus aureus RN9372 incubated for 1 hr in presence of AIP agonist by beta-lactamase reporter gene assay
# [11] = Inhibition of AgrC-1 Staphylococcus epidermidis AH3408 incubated for 24 hrs by fluorescence assay
# [12] = target: T1, Chloramphenicol acetyltransferase (Staphylococcus epidermidis) (UniProt D2JCN2); test: Activation of Chloramphenicol acetyltransferase activity in Staphylococcus epidermidis Tu3298 at 200 nM and measured every 15 sec for 20 mins (reference value: 12.5 U/mg)
# T1 sequence (whole entry): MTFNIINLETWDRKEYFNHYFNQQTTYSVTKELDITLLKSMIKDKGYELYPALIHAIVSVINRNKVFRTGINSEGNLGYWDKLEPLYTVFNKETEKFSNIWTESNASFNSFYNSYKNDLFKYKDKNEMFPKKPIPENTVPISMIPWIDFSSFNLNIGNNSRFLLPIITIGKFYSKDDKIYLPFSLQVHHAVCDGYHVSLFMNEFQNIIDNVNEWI
Molecule,IC50 [1],IC50 [2],IC50 [3],IC50 [4],other results
O=C1COCCOCCNC(=O)[C@H](NC(=O)Cc2ccccc2)CSC(=O)[C@H](Cc2cccc(Cl)c2)NC(=O)[C@H](CC2CCCC2)N1,3.87 nM,6.47 nM,0.387 nM,4.88 nM,–
CC(=O)N[C@H]1CSC(=O)[C@H](Cc2ccccc2)NC(=O)[C@H](Cc2ccccc2)NC(=O)CCCCCCCCNC1=O,3490 nM,479 nM,125 nM,468 nM,–
CC(=O)N[C@H]1CNC(=O)[C@H](Cc2ccccc2)NC(=O)[C@H](Cc2ccccc2)NC(=O)CCCCCCCCNC1=O,–,1340 nM,2610 nM,4740 nM,–
CC[C@@H](C)[C@H](N)C(=O)N[C@H](CC(N)=O)C(=O)N(C)[C@@H]1CSC(=O)[C@@H](CC(C)C)N(C)C(=O)[C@@H](CC(C)C)NC(=O)CN(Cc2ccccc2)C(=O)[C@@H](CC(=O)O)NC1=O,–,–,–,–,IC50 [5]: 6.59 nM; IC50 [6]: 1.95 nM; IC50 [7]: 4.49 nM
O=C1COCCOCCNC(=O)[C@H](NC(=O)Cc2ccccc2)CSC(=O)[C@H](Cc2cccc(F)c2)NC(=O)[C@H](CC2CCCC2)N1,4.75 nM,17.9 nM,0.0918 nM,2.01 nM,–
CC[C@@H](C)[C@H](N)C(=O)N[C@H](CC(N)=O)C(=O)N(C)[C@@H]1CSC(=O)[C@@H](CC(C)C)N(C)C(=O)[C@@H](CC(C)C)NC(=O)[C@@H](Cc2ccccc2)NC(=O)[C@@H](CC(=O)O)NC1=O,–,–,–,–,IC50 [5]: 106 nM; IC50 [6]: 134 nM; IC50 [7]: 137 nM
CC[C@H](C)[C@H](NC(=O)c1ccc2c(c1)C1(OC2=O)c2ccc(O)cc2Oc2cc(O)ccc21)C(=O)N[C@@H](CC(N)=O)C(=O)N[C@H]1CSC(=O)[C@H](CC(C)C)NC(=O)[C@H](CC(C)C)NC(=O)[C@H](Cc2ccccc2)NC(=O)[C@H](C)NC1=O (6FAM-INCAFLL; thioester 3-C),–,–,–,–,IC50 [8]: 22 nM
CC(=O)N[C@H]1CSC(=O)[C@H](Cc2ccccc2)NC(=O)[C@H](CC(C)C)NC(=O)[C@H](CO)NC(=O)CNC1=O (Ac-CGSLF; thioester 1-C),–,–,–,–,IC50 [9]: 189 nM; IC50 [10]: 1160 nM
CC(=O)N[C@H]1CSC(=O)[C@H](Cc2ccccc2)NC(=O)[C@H](CC(C)C)NC(=O)[C@H](CO)NC(=O)[C@H](CO)NC1=O (Ac-CSSLF; thioester 1-C),140 nM,97 nM,9.3 nM,101 nM,–
CC(=O)N[C@H]1CSC(=O)[C@H](Cc2ccccc2)N(C)C(=O)[C@H](CC(C)C)NC(=O)[C@H](CO)NC(=O)[C@H](CO)NC1=O (Ac-CSSL[NMeF]; thioester 1-C),–,–,–,–,IC50 [9]: > 30000 nM; IC50 [10]: > 30000 nM
CC(=O)N[C@H]1CSC(=O)[C@H](Cc2ccccc2)NC(=O)[C@H](CC(C)C)N(C)C(=O)[C@H](CO)NC(=O)[C@H](CO)NC1=O (Ac-CSS[NMeL]F; thioester 1-C),–,–,–,–,IC50 [9]: > 30000 nM; IC50 [10]: > 30000 nM
CC(=O)N[C@H]1CSC(=O)[C@H](Cc2ccccc2)NC(=O)[C@H](CC(C)C)NC(=O)[C@H](CO)N(C)C(=O)[C@H](CO)NC1=O (Ac-CS[NMeS]LF; thioester 1-C),–,–,–,–,IC50 [9]: 319 nM; IC50 [10]: 1050 nM
CC(=O)N[C@H]1CSC(=O)[C@H](Cc2ccccc2)NC(=O)[C@H](Cc2ccccc2)NC(=O)CCCCCCCNC1=O (Ac-C[Aoc]FF; thioester 1-C),985 nM,495 nM,34.8 nM,340 nM,–
CC(=O)N[C@H]1CSC(=O)[C@H](Cc2ccccc2)N(C)C(=O)[C@H](CC(C)C)NC(=O)CCCCNC1=O (Ac-C[Ava]L[NMeF]; thioester 1-C),–,–,–,–,IC50 [9]: 1140 nM; IC50 [10]: 50700 nM
CC(=O)N[C@H]1CSC(=O)[C@H](Cc2ccccc2)NC(=O)[C@H](CC(C)C)NC(=O)[C@H](CO)NC(=O)[C@H](CO)N(C)C1=O (Ac-C[NMeS]SLF; thioester 1-C),–,–,–,–,IC50 [9]: 639 nM; IC50 [10]: 7880 nM
CC(=O)N[C@H]1CNC(=O)[C@H](Cc2ccccc2)N(C)C(=O)[C@H](CC(C)C)NC(=O)[C@H](CO)NC(=O)[C@H](CO)NC1=O (Ac-[Dap]SSL[NMeF]; lactam 1-C),–,–,–,–,IC50 [9]: 1390 nM; IC50 [10]: 167000 nM
CC(=O)N[C@H]1CNC(=O)[C@H](Cc2ccccc2)NC(=O)[C@H](Cc2ccccc2)NC(=O)CCCCCCCNC1=O (Ac-[Dap][Aoc]FF; lactam 1-C),–,2200 nM,573 nM,3940 nM,–
CC[C@H](C)[C@@H]1NC(=O)[C@H](Cc2ccccc2)NC(=O)[C@H](CC(=O)O)NC(=O)[C@@H](NC(=O)[C@@H](NC(=O)[C@H](CO)NC(=O)[C@H](Cc2ccc(O)cc2)NC(=O)CCCC[C@@H]2SC[C@@H]3NC(=O)N[C@@H]32)[C@@H](C)O)CSC(=O)[C@H](CCSC)NC1=O (Biotin-YSTCDFIM; thioester 4-C),–,–,–,–,IC50 [8]: 40 nM
C[C@H](N)C(=O)N[C@@H](CO)C(=O)N[C@@H](C)C(=O)N[C@H]1CSC(=O)[C@H](Cc2ccccc2)NC(=O)[C@H](Cc2ccc(O)cc2)NC(=O)[C@H](C)NC(=O)[C@H](C)NC1=O (H-ASACAAYF; thioester 4-C),–,–,–,–,IC50 [11]: 2.84 nM
C[C@H](N)C(=O)N[C@@H](CO)C(=O)N[C@@H](C)C(=O)N[C@H]1CSC(=O)[C@H](Cc2ccccc2)NC(=O)[C@H](Cc2ccc(O)cc2)NC(=O)[C@H](C)NC(=O)[C@H](CO)NC1=O (H-ASACSAYF; thioester 4-C),–,–,–,–,IC50 [11]: 2.08 nM
CC(C)[C@H](NC(=O)[C@H](CO)NC(=O)[C@H](CC(=O)O)NC(=O)CN)C(=O)N[C@H]1CSC(=O)[C@H](Cc2ccccc2)NC(=O)[C@H](Cc2ccc(O)cc2)NC(=O)[C@H](CO)NC(=O)[C@H](C)NC1=O (H-GDSVCASYF; thioester 5-C),–,–,–,–,Activity [12]: 15.6 U/mg
CC[C@H](C)[C@H](N)C(=O)N[C@@H](CC(N)=O)C(=O)N[C@H]1CNC(=O)[C@H](CC(C)C)NC(=O)[C@H](CC(C)C)NC(=O)[C@H](Cc2ccccc2)NC(=O)[C@H](CC(=O)O)NC1=O (H-IN[Dap]DFLL; lactam 3-C),299 nM,> 1000 nM,75.2 nM,> 1000 nM,–
CC(C)C[C@@H]1NC(=O)[C@H](Cc2ccc(O)cc2)NC(=O)[C@H](CO)NC(=O)[C@H](C)NC(=O)[C@@H](NC(=O)[C@@H]2CCCN2C(=O)[C@H](CC(N)=O)NC(=O)[C@H](Cc2ccc(O)cc2)NC(=O)[C@H](CCCCN)NC(=O)[C@H](C)NC(=O)[C@H](C)NC(=O)[C@@H](N)CC(N)=O)CSC1=O (H-NAAKYNPCASYL; thioester 8-C),–,–,–,–,IC50 [11]: 34.3 nM
CC(C)C[C@@H]1NC(=O)[C@H](Cc2ccc(O)cc2)NC(=O)[C@H](CC(N)=O)NC(=O)[C@H](CO)NC(=O)[C@@H](NC(=O)[C@@H]2CCCN2C(=O)[C@H](CC(N)=O)NC(=O)[C@H](Cc2ccc(O)cc2)NC(=O)[C@H](CCCCN)NC(=O)[C@H](CO)NC(=O)[C@H](C)NC(=O)[C@@H](N)CC(N)=O)CSC1=O (H-NASKYNPCSNYL; thioester 8-C),–,–,–,–,IC50 [11]: 9.64 nM
CC(C)[C@H](NC(=O)[C@@H](N)CO)C(=O)N[C@H]1CSC(=O)[C@H](Cc2ccccc2)NC(=O)[C@H](Cc2ccc(O)cc2)NC(=O)[C@H](CO)NC(=O)[C@H](C)NC1=O (H-SVCASYF; thioester 3-C),–,–,–,–,Activity [12]: 16.1 U/mg
H-DSVCASYF-OH,–,–,–,–,Activity [12]: 9.8 U/mg
H-GDSVCASYF-OH,–,–,–,–,Activity [12]: 11.2 U/mg
H-SVCASYF-OH,–,–,–,–,Activity [12]: 8.9 U/mg

# Now from value to molecule, other results behind:
IC50 [1],IC50 [2],IC50 [3],IC50 [4],Molecule,other results
> 10000 nM,> 10000 nM,> 10000 nM,> 10000 nM,CC(=O)N[C@@H]1C/C=C\[C@H](Cc2ccccc2)NC(=O)[C@H](CC(C)C)NC(=O)[C@H](CO)NC(=O)[C@H](CO)NC1=O,–
5940 nM,583 nM,332 nM,181 nM,CC(=O)N[C@H]1CSC(=O)[C@H](Cc2ccccc2)NC(=O)[C@H](Cc2ccccc2)NC(=O)COCCOCCNC1=O (Ac-C[AEEA]FF; thioester 1-C),–
> 10000 nM,> 10000 nM,> 10000 nM,> 10000 nM,CC(=O)N[C@H]1CNC(=O)[C@H](Cc2ccccc2)NC(=O)[C@H](Cc2ccccc2)NC(=O)COCCOCCNC1=O (Ac-[Dap][AEEA]FF; lactam 1-C),–
0.189 nM,13.9 nM,0.216 nM,1.5 nM,CC(C)C[C@@H]1NC(=O)[C@H](CC(C)C)NC(=O)[C@H](Cc2ccccc2)NC(=O)[C@H](C)NC(=O)[C@@H](N)CNC1=O (H-[Dap]AFLL; lactam 1-C),–
> 1000 nM,> 1000 nM,> 1000 nM,1000 nM,C#CCCC(=O)N[C@H](C(=O)N[C@@H](CC(N)=O)C(=O)N[C@H]1CSC(=O)[C@H](CC(C)C)NC(=O)[C@H](CC(C)C)NC(=O)[C@H](Cc2ccccc2)NC(=O)[C@H](C)NC1=O)[C@@H](C)CC (Pent4ynoyl-INCAFLL; thioester 3-C),–
0.0957 nM,0.9 nM,0.329 nM,0.257 nM,CC(C)C[C@@H]1NC(=O)[C@H](CO)NC(=O)[C@H](CO)NC(=O)CCSC(=O)[C@H](Cc2ccccc2)N(C)C1=O ([Mpa]SSL[NMeF]; thioester 1-C),IC50 [9]: 1680 nM; IC50 [10]: 47300 nM
